Earlier results, collected in article PMC5102340 (Advanced functional materials, 2016).
Like-named read-outs stand apart in the source and are kept apart here.

## Oc1ccccc1O [Catechol]
  pKa1: ≈ 9.4
  pKa2: ≈ 13.7
Listed as catechol
  pKa1: 9.4
